Experimental data from patent US9597407B2, “Targeted antimicrobial moieties” (C3 Jian, Inc., priority 2009, dated 2017).
Entries after “also recorded” stand apart in the source; their conditions may differ.

What was measured:
microorganisms [1] = test: Peptide activities: binding, antimicrobial, growth or phenotype altering (Table 8)
From the text: In certain embodiments, peptides described herein can have multiple activities. Thus for example, a peptide can have both binding/targeting activity and antimicrobial activity. Such peptides can be used, e.g., in a chimeric construct, for any or all of these properties. Thus, for example, a peptide designated “B” in Table 8 can be used as a targeting peptide. If it is also designated G or M it can also be used for antimicrobial activity.

bacteria = test: Binding of targeting peptides to microorganisms (Table 3); details: preferably 1x PBS; for Target(s): microorganism bound by the targeting peptide, binding in aqueous buffers chosen by peptide solubility; for Target(s) (microorganisms bound by the targeting peptide): peptide binding in aqueous buffers that varied depending on peptide solubility
microorganisms [2] = test: Morphology, biofilm and growth disruption by peptides (Table 5); format: cell-based; parameters: key: A: Peptide aggregates; B: Less hyphal formation; Clumps; Diffuse clumps and small polyps; F: Diffuse growth; H: Thin; I: Growth inhibition; Microcolony formation; Rippled; Small polyps; Thick; W: Halo formation on top, microlonies on bottom
From the text: In certain embodiments peptides that induce alterations in phenotype or other biological activities can also be used as antimicrobial effector moieties.

| Substance | Activities (microorganisms [1]) | Organism, effect (microorganisms [2]; MRSA) | Target(s) (microorganisms bound by the targeting peptide) (bacteria) | Organism, effect (morphology, biofilm and growth disruption) (microorganisms [2]; S. pneumoniae) | further results |
| --- | --- | --- | --- | --- | --- |
| PF-378 (ESAKSNLNFLMQEEWALFLLL; Peptide with targeting and/or antimicrobial activity) | G B | MRSA (M) | – | – | Target(s) (bacteria): B. subtilis; also recorded: B. fragilis; also recorded: E. coli; also recorded: P. aeruginosa; also recorded: C. jeikeium; Organism, effect (microorganisms [2]; S. epidermidis): S. epidermidis (M) |
| PF-381 (QGANPCQQVGFTVNDPDCRLAKTV; Peptide with targeting and/or antimicrobial activity) | G B | MRSA (C) | – | – | Target(s) (bacteria): E. coli; also recorded: P. aeruginosa; also recorded: C. jejuni; Organism, effect (microorganisms [2]; E. coli): E. coli (R); Organism, effect (microorganisms [2]; E. faecalis): E. faecalis (C); Organism, effect (microorganisms [2]; S. epidermidis): S. epidermidis (C) |
| PF-382 (KYKCSWCKRVYTLRKDHKTAR; Peptide with targeting and/or antimicrobial activity) | G B | MRSA (M) | – | – | Target(s) (bacteria): S. epidermidis; also recorded: B. subtilis; also recorded: B. fragilis; also recorded: E. coli; also recorded: P. aeruginosa; also recorded: E. faecalis; also recorded: C. jeikeium; also recorded: C. jejuni |
| PF-383 (WSEIEINTKQSN; Peptide with targeting and/or antimicrobial activity) | G B | – | – | – | Target(s) (bacteria): S. epidermidis; also recorded: B. subtilis; also recorded: B. fragilis; also recorded: E. coli; also recorded: C. jejuni; Organism, effect (microorganisms [2]; E. coli): E. coli (R); Organism, effect (microorganisms [2]; S. epidermidis): S. epidermidis (C) |
| PF-385 (MIKKSILKIKYYVPVLISLTLILSA; Peptide with targeting and/or antimicrobial activity) | G B | – | S. epidermidis; also recorded: E. coli; also recorded: P. aeruginosa; also recorded: C. albicans; also recorded: E. faecalis | – | Organism, effect (microorganisms [2]; E. coli): E. coli (A) |
| PF-389 (GLQFKEIAEEFHITTTALQQWHKDNGYPIYNKNNRK; Peptide with targeting and/or antimicrobial activity) | G B | MRSA (C) | S. epidermidis and C. albicans and MRSA and S. pneumoniae and E. faecalis and C. jeikeium | – | Organism, effect (microorganisms [2]; C. jejuni): C. jejuni (R); Organism, effect (microorganisms [2]; E. faecalis): E. faecalis (R); Organism, effect (microorganisms [2]; S. epidermidis): S. epidermidis (R); Organism, effect (microorganisms [2]; S. pneumoniae): S. pneumoniae (D) |
| PF-390 (VVAYVITQVGAIRF; Peptide with targeting and/or antimicrobial activity) | G B | MRSA (D) | S. epidermidis and P. aeruginosa and C. albicans and MRSA | – | Organism, effect (microorganisms [2]; C. jejuni): C. jejuni (D); Organism, effect (microorganisms [2]; E. coli): E. coli (C); Organism, effect (microorganisms [2]; E. faecalis): E. faecalis (D); Organism, effect (microorganisms [2]; S. epidermidis): S. epidermidis (D); Organism, effect (microorganisms [2]; S. pneumoniae): S. pneumoniae (D) |
| PF-392 (DPAGCNDIVRKYCK; Peptide with targeting and/or antimicrobial activity) | G B | MRSA (S) | S. epidermidis; also recorded: B. subtilis; also recorded: S. pneumoniae; also recorded: C. jeikeium; also recorded: C. jejuni | – | Organism, effect (microorganisms [2]; C. jejuni): C. jejuni (A); Organism, effect (microorganisms [2]; E. faecalis): E. faecalis (A) |
| PF-393 (DLVQSILSEFKKSG; Peptide with targeting and/or antimicrobial activity) | G B | MRSA (C) | S. epidermidis and E. coli and C. albicans and MRSA and S. pneumoniae and C. jejuni | – | Organism, effect (microorganisms [2]; C. jejuni): C. jejuni (R); Organism, effect (microorganisms [2]; E. faecalis): E. faecalis (A); Organism, effect (microorganisms [2]; S. epidermidis): S. epidermidis (R); Organism, effect (microorganisms [2]; S. pneumoniae): S. pneumoniae (R) |
| PF-394 (VLKEECYQKN; Peptide with targeting and/or antimicrobial activity) | G B | MRSA (C) | S. epidermidis and MRSA and C. jejuni | – | Organism, effect (microorganisms [2]; E. faecalis): E. faecalis (A) |
| PF-422 (MSRKKYENDEKSQKKLKIGRKSDVFYGIID; Peptide with targeting and/or antimicrobial activity) | G B | – | C. albicans and MRSA and C. jeikeium | S. pneumoniae (C) | Organism, effect (morphology, biofilm and growth disruption) (microorganisms [2]; C. jejuni): C. jejuni (R); Organism, effect (morphology, biofilm and growth disruption) (microorganisms [2]; E. faecalis): E. faecalis (R); Organism, effect (morphology, biofilm and growth disruption) (microorganisms [2]; MRSA): MRSA (C); Organism, effect (morphology, biofilm and growth disruption) (microorganisms [2]; S. epidermidis): S. epidermidis (R) |
| PF-444 (MAAKLWEEGKMVYASSASMTKRLKLAMSKV; Peptide with targeting and/or antimicrobial activity) | G B | – | M. luteus; also recorded: C. albicans; also recorded: S. pneumoniae; also recorded: C. jeikeium | S. pneumoniae (R) | Organism, effect (morphology, biofilm and growth disruption) (microorganisms [2]; E. coli): E. coli (R); Organism, effect (morphology, biofilm and growth disruption) (microorganisms [2]; E. faecalis): E. faecalis (C); Organism, effect (morphology, biofilm and growth disruption) (microorganisms [2]; MRSA): MRSA (C); Organism, effect (morphology, biofilm and growth disruption) (microorganisms [2]; S. epidermidis): S. epidermidis (C) |
| PF-445 (ASMTKRLKLAMSKV; Peptide with targeting and/or antimicrobial activity) | G B | – | M. luteus; also recorded: S. pneumoniae; also recorded: C. jeikeium | S. pneumoniae (M) | – |
| PF-446 (SGNEKV; Peptide with targeting and/or antimicrobial activity) | G B | – | M. luteus; also recorded: C. jeikeium | S. pneumoniae (H) | – |
| PF-447 (IDKSRNKDQFSHIFGLYNICSG; Peptide with targeting and/or antimicrobial activity) | G B | – | S. epidermidis; also recorded: M. luteus; also recorded: E. coli; also recorded: S. pneumoniae | S. pneumoniae (C) | Organism, effect (morphology, biofilm and growth disruption) (microorganisms [2]; E. faecalis): E. faecalis (C); Organism, effect (morphology, biofilm and growth disruption) (microorganisms [2]; MRSA): MRSA (C); Organism, effect (morphology, biofilm and growth disruption) (microorganisms [2]; S. epidermidis): S. epidermidis (C) |
| PF-452 (MNNWIKVAQISVTVINEVIDIMKEKQNGGK; Peptide with targeting and/or antimicrobial activity) | G B | – | M. luteus; also recorded: P. aeruginosa; also recorded: C. albicans; also recorded: S. pneumoniae; also recorded: E. faecalis; also recorded: C. jeikeium; also recorded: M. smegmatis | S. pneumoniae (R) | Organism, effect (morphology, biofilm and growth disruption) (microorganisms [2]; E. coli): E. coli (C); Organism, effect (morphology, biofilm and growth disruption) (microorganisms [2]; E. faecalis): E. faecalis (C); Organism, effect (morphology, biofilm and growth disruption) (microorganisms [2]; MRSA): MRSA (C); Organism, effect (morphology, biofilm and growth disruption) (microorganisms [2]; S. epidermidis): S. epidermidis (C) |
| PF-453 (IIQDIAHAFGY; Peptide with targeting and/or antimicrobial activity) | G B | – | M. luteus; also recorded: E. coli; also recorded: P. aeruginosa; also recorded: S. pneumoniae; also recorded: E. faecalis; also recorded: C. jeikeium; also recorded: C. jejuni | S. pneumoniae (C) | Organism, effect (morphology, biofilm and growth disruption) (microorganisms [2]; E. coli): E. coli (C); Organism, effect (morphology, biofilm and growth disruption) (microorganisms [2]; MRSA): MRSA (C); Organism, effect (morphology, biofilm and growth disruption) (microorganisms [2]; S. epidermidis): S. epidermidis (C) |
| PF-456 (TCVKPRTIN; Peptide with targeting and/or antimicrobial activity) | G B | – | C. albicans and MRSA and E. faecalis and C. jeikeium and C. jejuni | – | Organism, effect (morphology, biofilm and growth disruption) (microorganisms [2]; C. jejuni): C. jejuni (A); Organism, effect (morphology, biofilm and growth disruption) (microorganisms [2]; E. faecalis): E. faecalis (A) |
| PF-457 (INKYHHIA; Peptide with targeting and/or antimicrobial activity) | G B | – | C. albicans; also recorded: S. pneumoniae; also recorded: E. faecalis; also recorded: C. jeikeium | S. pneumoniae (M) | – |
| PF-459 (EKRMSFNENQSHRPLL; Peptide with targeting and/or antimicrobial activity) | G B | – | P. aeruginosa | S. pneumoniae (H) | – |
| PF-461 (MTLAIKNCSVTKCLGFGDFVNDDSDSYFDA; Peptide with targeting and/or antimicrobial activity) | G B | – | E. coli; also recorded: S. pneumoniae | S. pneumoniae (R) | Organism, effect (morphology, biofilm and growth disruption) (microorganisms [2]; E. faecalis): E. faecalis (A); Organism, effect (morphology, biofilm and growth disruption) (microorganisms [2]; MRSA): MRSA (R) |
| PF-462 (KNKTDTL; Peptide with targeting and/or antimicrobial activity) | G B | – | E. faecalis; also recorded: C. jeikeium | S. pneumoniae (H) | – |
| PF-464 (VDMVNRFLGN; Peptide with targeting and/or antimicrobial activity) | G B | – | S. epidermidis and C. albicans and MRSA and S. pneumoniae and E. faecalis and C. jeikeium and C. jejuni | S. pneumoniae (S) | – |
